Measurements reported in ChEMBL document CHEMBL5154945, “Discovery and Optimization of Pyrrolopyrimidine Derivatives as Selective Disruptors of the Perinucleolar Compartment, a Marker of Tumor Progression toward Metastasis” (J Med Chem, 2022).
Several values for one entry are separate records, joined by “and”; a condition that tells them apart may be missing. Identical values can stand only once.

Assays:
[1] = biological target: D(3) dopamine receptor (Homo sapiens) (UniProt P35462); assay: Binding affinity to D3 receptor (unknown origin) at 10000 nM by radioligand displacement assay relative to control
[2] = biological target: Muscarinic acetylcholine receptor M5 (Homo sapiens) (UniProt P08912); assay: Binding affinity to M5 receptor (unknown origin) at 10000 nM by radioligand displacement assay relative to control
[3] = biological target: Alpha-1B adrenergic receptor (Homo sapiens) (UniProt P35368); assay: Binding affinity to alpha1B receptor (unknown origin) at 10000 nM by radioligand displacement assay relative to control
[4] = biological target: Mu-type opioid receptor (Homo sapiens) (UniProt P35372); assay: Binding affinity to MOR receptor (unknown origin) at 10000 nM by radioligand displacement assay relative to control
LOX IMVI = assay: Anticancer activity against human LOX IMVI cells assessed as cell growth inhibition; type: functional, cell-based; settings: dose 1-100 µM, DDE = dose-dependent effect
[5] = biological target: Delta-type opioid receptor (Homo sapiens) (UniProt P41143); assay: Binding affinity to DOR receptor (unknown origin) at 10000 nM by radioligand displacement assay relative to control
DU-145 = assay: Anticancer activity against human DU-145 cells assessed as cell growth inhibition; type: functional, cell-based; settings: dose 1-100 µM, DDE = dose-dependent effect
[6] = biological target: Sodium-dependent dopamine transporter (Homo sapiens, UniProt Q01959); assay: Binding affinity to DAT receptor (unknown origin) by radioligand displacement assay
[7] = biological target: Sigma intracellular receptor 2 (Homo sapiens, UniProt Q5BJF2); assay: Binding affinity to sigma2 receptor (unknown origin) by radioligand displacement assay
[8] = biological target: 5-hydroxytryptamine receptor 5A (Homo sapiens) (UniProt P47898); assay: Binding affinity to 5-HT5A receptor (unknown origin) at 10000 nM by radioligand displacement assay relative to control
[9] = biological target: Alpha-1A adrenergic receptor (Homo sapiens) (UniProt P35348); assay: Binding affinity to alpha1A receptor (unknown origin) at 10000 nM by radioligand displacement assay relative to control
[10] = Kinetic solubility of compound

Sodium-dependent dopamine transporter, sequence (Q01959 whole entry): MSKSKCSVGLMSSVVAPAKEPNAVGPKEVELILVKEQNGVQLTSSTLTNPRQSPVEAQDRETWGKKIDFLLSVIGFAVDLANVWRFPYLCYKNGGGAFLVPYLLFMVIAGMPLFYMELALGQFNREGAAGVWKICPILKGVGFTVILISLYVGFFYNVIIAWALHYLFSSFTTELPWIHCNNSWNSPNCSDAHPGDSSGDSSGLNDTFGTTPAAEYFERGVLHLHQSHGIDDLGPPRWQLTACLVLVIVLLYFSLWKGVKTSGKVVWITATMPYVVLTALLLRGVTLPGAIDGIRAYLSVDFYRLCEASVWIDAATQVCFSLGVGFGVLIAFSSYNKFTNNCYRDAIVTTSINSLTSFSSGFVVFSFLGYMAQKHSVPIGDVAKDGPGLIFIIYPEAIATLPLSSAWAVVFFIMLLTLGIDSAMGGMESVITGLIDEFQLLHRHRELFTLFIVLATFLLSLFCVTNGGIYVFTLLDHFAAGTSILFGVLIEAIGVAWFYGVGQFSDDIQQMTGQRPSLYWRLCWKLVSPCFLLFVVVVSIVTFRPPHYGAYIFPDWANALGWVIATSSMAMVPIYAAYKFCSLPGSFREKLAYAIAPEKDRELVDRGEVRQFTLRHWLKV
D(3) dopamine receptor (Homo sapiens), sequence (P35462 whole entry): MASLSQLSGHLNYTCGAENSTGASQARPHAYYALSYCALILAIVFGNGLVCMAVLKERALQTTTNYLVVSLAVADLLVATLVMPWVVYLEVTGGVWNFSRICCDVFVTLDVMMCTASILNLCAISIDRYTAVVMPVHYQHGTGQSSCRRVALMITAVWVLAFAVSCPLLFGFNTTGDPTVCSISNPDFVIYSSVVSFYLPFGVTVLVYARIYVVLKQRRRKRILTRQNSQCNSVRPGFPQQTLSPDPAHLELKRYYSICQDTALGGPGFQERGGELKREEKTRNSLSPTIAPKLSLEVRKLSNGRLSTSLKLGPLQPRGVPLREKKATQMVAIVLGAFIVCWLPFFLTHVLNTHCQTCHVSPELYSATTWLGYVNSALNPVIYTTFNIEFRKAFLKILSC
Muscarinic acetylcholine receptor M5 (Homo sapiens), sequence (P08912 whole entry): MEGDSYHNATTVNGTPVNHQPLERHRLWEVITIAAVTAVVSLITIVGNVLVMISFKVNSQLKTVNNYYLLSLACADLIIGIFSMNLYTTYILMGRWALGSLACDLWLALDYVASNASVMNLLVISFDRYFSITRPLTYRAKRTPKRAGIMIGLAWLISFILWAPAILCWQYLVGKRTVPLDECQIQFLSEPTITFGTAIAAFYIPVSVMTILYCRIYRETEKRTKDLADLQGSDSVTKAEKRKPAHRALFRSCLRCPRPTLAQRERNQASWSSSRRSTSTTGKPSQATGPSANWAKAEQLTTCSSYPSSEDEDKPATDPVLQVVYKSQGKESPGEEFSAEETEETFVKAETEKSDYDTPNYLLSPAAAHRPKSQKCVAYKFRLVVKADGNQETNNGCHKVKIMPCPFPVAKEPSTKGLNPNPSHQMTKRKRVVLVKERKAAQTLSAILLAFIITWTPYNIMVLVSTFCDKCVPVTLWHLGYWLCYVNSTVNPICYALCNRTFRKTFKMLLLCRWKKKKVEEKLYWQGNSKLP
Alpha-1A adrenergic receptor (Homo sapiens), sequence (P35348 whole entry): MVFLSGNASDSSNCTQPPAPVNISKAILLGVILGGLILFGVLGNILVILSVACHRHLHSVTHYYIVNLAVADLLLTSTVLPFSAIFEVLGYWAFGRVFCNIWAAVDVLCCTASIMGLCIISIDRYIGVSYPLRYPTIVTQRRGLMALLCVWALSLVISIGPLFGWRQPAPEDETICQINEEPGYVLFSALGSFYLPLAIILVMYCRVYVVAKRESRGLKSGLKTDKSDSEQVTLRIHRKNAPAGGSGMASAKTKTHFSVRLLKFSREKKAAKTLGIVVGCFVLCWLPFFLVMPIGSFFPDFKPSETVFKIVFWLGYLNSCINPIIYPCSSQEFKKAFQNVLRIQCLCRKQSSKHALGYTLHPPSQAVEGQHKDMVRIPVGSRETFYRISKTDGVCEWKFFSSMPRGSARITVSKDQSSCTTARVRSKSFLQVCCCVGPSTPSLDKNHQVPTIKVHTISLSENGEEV
Delta-type opioid receptor (Homo sapiens), sequence (P41143 whole entry): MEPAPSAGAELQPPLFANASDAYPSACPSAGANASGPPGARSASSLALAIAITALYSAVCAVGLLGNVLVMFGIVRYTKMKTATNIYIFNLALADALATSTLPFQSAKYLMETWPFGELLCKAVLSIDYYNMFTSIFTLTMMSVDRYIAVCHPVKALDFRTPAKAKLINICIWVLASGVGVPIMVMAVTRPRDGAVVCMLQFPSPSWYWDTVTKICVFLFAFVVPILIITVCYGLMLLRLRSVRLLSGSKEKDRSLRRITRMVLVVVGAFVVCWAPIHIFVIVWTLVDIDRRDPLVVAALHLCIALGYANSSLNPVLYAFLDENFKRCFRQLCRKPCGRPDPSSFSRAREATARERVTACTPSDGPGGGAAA
Alpha-1B adrenergic receptor (Homo sapiens), sequence (P35368 whole entry): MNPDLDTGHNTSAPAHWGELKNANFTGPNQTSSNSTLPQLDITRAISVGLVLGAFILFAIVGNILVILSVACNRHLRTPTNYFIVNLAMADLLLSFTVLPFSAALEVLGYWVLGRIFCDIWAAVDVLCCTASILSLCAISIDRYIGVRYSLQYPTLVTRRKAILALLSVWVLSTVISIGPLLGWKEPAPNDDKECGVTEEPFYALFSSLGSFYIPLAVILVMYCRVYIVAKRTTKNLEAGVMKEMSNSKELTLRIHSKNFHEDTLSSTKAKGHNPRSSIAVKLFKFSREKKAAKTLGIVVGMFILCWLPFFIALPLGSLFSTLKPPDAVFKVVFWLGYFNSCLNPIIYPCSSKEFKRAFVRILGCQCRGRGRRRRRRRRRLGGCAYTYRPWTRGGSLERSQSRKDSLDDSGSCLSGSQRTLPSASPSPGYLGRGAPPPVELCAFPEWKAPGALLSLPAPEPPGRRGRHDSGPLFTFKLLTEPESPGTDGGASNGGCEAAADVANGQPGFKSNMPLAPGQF
Mu-type opioid receptor (Homo sapiens), sequence (P35372 whole entry): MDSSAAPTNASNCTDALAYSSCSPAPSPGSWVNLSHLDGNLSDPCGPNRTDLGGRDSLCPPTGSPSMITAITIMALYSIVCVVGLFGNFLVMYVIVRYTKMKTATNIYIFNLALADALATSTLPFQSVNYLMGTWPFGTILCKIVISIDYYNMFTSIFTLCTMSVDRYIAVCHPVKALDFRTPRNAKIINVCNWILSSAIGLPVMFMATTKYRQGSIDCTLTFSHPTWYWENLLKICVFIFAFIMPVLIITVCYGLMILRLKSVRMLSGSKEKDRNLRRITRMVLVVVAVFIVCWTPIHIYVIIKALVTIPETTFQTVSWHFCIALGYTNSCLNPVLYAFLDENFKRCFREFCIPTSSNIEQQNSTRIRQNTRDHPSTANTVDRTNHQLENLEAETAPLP
5-hydroxytryptamine receptor 5A (Homo sapiens), sequence (P47898 whole entry): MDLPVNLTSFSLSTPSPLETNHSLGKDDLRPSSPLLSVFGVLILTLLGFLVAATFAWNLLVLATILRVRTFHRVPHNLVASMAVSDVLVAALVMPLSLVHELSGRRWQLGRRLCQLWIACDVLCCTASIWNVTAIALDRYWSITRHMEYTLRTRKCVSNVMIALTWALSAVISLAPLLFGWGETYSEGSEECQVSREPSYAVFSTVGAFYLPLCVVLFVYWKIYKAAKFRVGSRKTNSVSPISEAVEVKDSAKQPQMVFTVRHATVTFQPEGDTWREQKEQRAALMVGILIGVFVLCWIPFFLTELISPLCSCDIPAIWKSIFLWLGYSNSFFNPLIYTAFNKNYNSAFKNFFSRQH
Sigma intracellular receptor 2, sequence (Q5BJF2 whole entry): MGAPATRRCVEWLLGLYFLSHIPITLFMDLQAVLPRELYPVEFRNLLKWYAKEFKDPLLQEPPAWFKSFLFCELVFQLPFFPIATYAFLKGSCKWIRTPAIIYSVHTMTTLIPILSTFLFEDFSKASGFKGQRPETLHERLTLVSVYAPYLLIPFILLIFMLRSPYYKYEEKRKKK

SMILES: N=c1c2c(-c3ccccc3)c(-c3ccccc3)n(Cc3ccccc3)c2ncn1[C@H]1CC[C@H](O)CC1 [ML-246]
- Activity [1]: < 50%
- Activity [2]: < 50%
- Activity [3]: < 50%
- Activity [4]: < 50%
- Activity (LOX IMVI): Dde
- Activity [5]: < 50%
- Activity (DU-145): Dde
- Ki [6]: 3410 nM
- Ki [7]: 244 nM
- Activity [8]: < 50%
- Activity [9]: < 50%
- solubility kinetic [10]: > 99 µM and > 47 µg/mL
